This is an account of results in PubChem BioAssay AID248 (DTP/NCI, 2004).

“And” between values parts separate entries of the source, which are not always exact repeats. Equal entries are not always repeated. Inconclusive results and toxic doses are left out.

This assay has as its system L1210 leukemia ip in BDF1 mice, survival T/C. As to the kind of experiment: NCI In Vivo Anticancer Drug Screen. Data for tumor model L1210 Leukemia (intraperitoneal) in B6D2F1 (BDF1) mice. The conditions noted are these: endpoint: mean survival time, higher = longer survival. The essentials: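 Tumor cells were implanted, animals were treated, and survival was followed. The result divides the treated measurement by the vehicle-control measurement.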

[1] abbreviates: dose: 100.0 mg/kg/injection, schedule: Q01DX009 (ip), vehicle: Klucel (hydroxypropylcellulose) (HPC).
[2] abbreviates: dose: 100.0 mg/kg/injection, schedule: Q04DX003 (ip), vehicle: Klucel (hydroxypropylcellulose) (HPC).
Where [3] appears, read: dose: 50.0 mg/kg/injection, schedule: Q01DX001 (ip), vehicle: carboxymethylcellulose (CMC).
The mark [4] stands for this setting: dose: 200.0 mg/kg/injection, schedule: Q01DX001 (ip), vehicle: carboxymethylcellulose (CMC).
The mark [5] stands for this setting: dose: 100.0 mg/kg/injection, schedule: Q04DX002 (ip), vehicle: Klucel (hydroxypropylcellulose) (HPC).
Where [6] appears, read: dose: 200.0 mg/kg/injection, schedule: Q04DX002 (ip), vehicle: Klucel (hydroxypropylcellulose) (HPC).
The mark [7] stands for this setting: dose: 400.0 mg/kg/injection, schedule: Q04DX002 (ip), vehicle: Klucel (hydroxypropylcellulose) (HPC).
Setting [8] is: dose: 200.0 mg/kg/injection, schedule: Q04DX003 (ip), vehicle: Klucel (hydroxypropylcellulose) (HPC).
[9] abbreviates: dose: 400.0 mg/kg/injection, schedule: Q04DX003 (ip), vehicle: Klucel (hydroxypropylcellulose) (HPC).
The mark [10] stands for this setting: dose: 100.0 mg/kg/injection, schedule: Q01DX001 (ip), vehicle: saline.

On to `COc1cc2c(cc1OC)C1CCN3CCCC3N1CC2` (stereo not given), for which the T/C runs as follows: (dose: 25.0 mg/kg/injection, schedule: Q01DX009 (ip), vehicle: Klucel (hydroxypropylcellulose) (HPC)) 102 % of control; (dose: 50.0 mg/kg/injection, schedule: Q01DX009 (ip), vehicle: Klucel (hydroxypropylcellulose) (HPC)) 96 % of control; under setting [1], 98 % of control; under setting [2], 96 % of control.

In the case of `C[Si](C)(C)Cc1ccccc1`, the T/C runs as follows: under setting [3], 93 % of control; under setting [4], 95 % of control.

Consider `c1ccc(N=Nc2ccncc2)cc1`, for which the T/C (dose: 6.25 mg/kg/injection, schedule: Q04DX003 (ip), vehicle: saline with Tween-80) is 101 % of control; the T/C (dose: 12.5 mg/kg/injection, schedule: Q04DX003 (ip), vehicle: saline with Tween-80) was 92 % of control; the T/C (dose: 25.0 mg/kg/injection, schedule: Q04DX003 (ip), vehicle: saline with Tween-80) was 97 % of control.

As for `COc1ccc(C(C#N)=C2C=CC(=NO)C=C2)cc1`, for the setting “dose: 100.0 mg/kg/injection, schedule: Q01DX009 (ip), vehicle: saline with Tween-80”, the T/C was 94 % of control.

As for `COC(=O)/C=C/c1c[nH]c2nccnc12`, the T/C is 98 % of control (dose: 100.0 mg/kg/injection, schedule: Q01DX009 (ip), vehicle: water); 101 % of control (dose: 100.0 mg/kg/injection, schedule: Q04DX003 (ip), vehicle: water); 95 % of control (dose: 200.0 mg/kg/injection, schedule: Q01DX009 (ip), vehicle: water); 98 % of control (dose: 200.0 mg/kg/injection, schedule: Q04DX003 (ip), vehicle: water); 97 % of control (dose: 400.0 mg/kg/injection, schedule: Q01DX009 (ip), vehicle: water); 102 % of control (dose: 400.0 mg/kg/injection, schedule: Q04DX003 (ip), vehicle: water).

For the compound `COCCCN=C(N)c1ccc(NC(=O)c2ccc(C(=O)Nc3ccc(C(N)=NCCCOC)cc3)c(Cl)c2)cc1`, the T/C runs as follows: (dose: 0.47 mg/kg/injection, schedule: Q01DX Z (ip), vehicle: saline) 92 % of control; (dose: 0.94 mg/kg/injection, schedule: Q01DX Z (ip), vehicle: saline) 91 % of control; (dose: 1.88 mg/kg/injection, schedule: Q01DX Z (ip), vehicle: saline) 94 % of control; (dose: 3.75 mg/kg/injection, schedule: Q01DX Z (ip), vehicle: saline) 111 % of control; (dose: 7.5 mg/kg/injection, schedule: Q01DX Z (ip), vehicle: saline) 171 % of control; (dose: 7.5 mg/kg/injection, schedule: Q01DX Z (oral), vehicle: saline) 103 % of control. For the same compound, the T/C is, setting by setting: (dose: 15.0 mg/kg/injection, schedule: Q01DX Z (ip), vehicle: saline) 89 % of control; (dose: 15.0 mg/kg/injection, schedule: Q01DX Z (oral), vehicle: saline) 111 % of control; (dose: 30.0 mg/kg/injection, schedule: Q01DX Z (oral), vehicle: saline) 94 % of control; (dose: 60.0 mg/kg/injection, schedule: Q01DX Z (oral), vehicle: saline) 102 % of control.

In the case of `CC(=O)OCCC(=O)N1Cc2cc3ccccc3nc2C1`, the T/C was 96 % of control (dose: 10.0 mg/kg/injection, schedule: Q04DX003 (ip), vehicle: alcohol); 94 % of control (dose: 20.0 mg/kg/injection, schedule: Q04DX003 (ip), vehicle: alcohol); 96 % of control (dose: 40.0 mg/kg/injection, schedule: Q04DX003 (ip), vehicle: alcohol); 96 % of control (dose: 80.0 mg/kg/injection, schedule: Q04DX003 (ip), vehicle: alcohol); 92 % of control (dose: 160.0 mg/kg/injection, schedule: Q04DX003 (ip), vehicle: alcohol).

For `CCCCCCCC(=O)N1CC(C)OC(C)C1` (stereo not given), the T/C runs as follows: under setting [5], 100 % of control; under setting [6], 114 % of control; under setting [7], 107 % of control.

With `CCc1ccccc1NC(=O)SCc1ccccc1`, the T/C is, setting by setting: (dose: 100.0 mg/kg/injection, schedule: Q01DX001 (ip), vehicle: Klucel (hydroxypropylcellulose) (HPC)) 91 % of control; under setting [1], 100 % of control and 90 % of control; under setting [5], 95 % of control and 109 % of control; under setting [2], 87 % of control; (dose: 200.0 mg/kg/injection, schedule: Q01DX001 (ip), vehicle: Klucel (hydroxypropylcellulose) (HPC)) 94 % of control; (dose: 200.0 mg/kg/injection, schedule: Q01DX009 (ip), vehicle: Klucel (hydroxypropylcellulose) (HPC)) 90 % of control. Besides, the T/C under setting [6] was 97 % of control and 102 % of control; the T/C under setting [8] is 102 % of control; the T/C (dose: 400.0 mg/kg/injection, schedule: Q01DX001 (ip), vehicle: Klucel (hydroxypropylcellulose) (HPC)) is 89 % of control; the T/C (dose: 400.0 mg/kg/injection, schedule: Q01DX009 (ip), vehicle: Klucel (hydroxypropylcellulose) (HPC)) is 108 % of control and 90 % of control; the T/C under setting [7] was 92 % of control and 105 % of control; the T/C under setting [9] is 98 % of control.

`O=C(O)c1cc(C(=O)O)c(C(=O)O)cc1C(=O)O` (tested in a mixture with another compound): the T/C runs as follows: (dose: 5.0 mg/kg/injection, schedule: Q01DX001 (ip), vehicle: saline) 107 % of control; (dose: 10.0 mg/kg/injection, schedule: Q01DX001 (ip), vehicle: saline) 103 % of control; (dose: 20.0 mg/kg/injection, schedule: Q01DX001 (ip), vehicle: saline) 98 % of control; (dose: 40.0 mg/kg/injection, schedule: Q01DX001 (ip), vehicle: saline) 104 % of control; (dose: 80.0 mg/kg/injection, schedule: Q01DX001 (ip), vehicle: saline) 96 % of control; under setting [10], 98 % of control.

For `CC(C)(C)c1ccc(P(=O)(O)C(C)(C)C)cc1`, the T/C reads like this: (dose: 75.0 mg/kg/injection, schedule: Q01DX001 (ip), vehicle: saline) 96 % of control; (dose: 150.0 mg/kg/injection, schedule: Q01DX001 (ip), vehicle: saline) 102 % of control.

As to `Cc1cc(N(CCCl)CCCl)ccc1C=NCCCCN=Cc1ccc(N(CCCl)CCCl)cc1C`, the T/C is, setting by setting: under setting [3], 104 % of control; (dose: 100.0 mg/kg/injection, schedule: Q01DX001 (ip), vehicle: carboxymethylcellulose (CMC)) 106 % of control; under setting [4], 101 % of control; (dose: 400.0 mg/kg/injection, schedule: Q01DX001 (ip), vehicle: carboxymethylcellulose (CMC)) 101 % of control.

Take `CCCCCCC(/C=N\Nc1nnc(N/N=C\C(=C\c2ccccc2)CCCCCC)c2ccccc12)=C/c1ccccc1`: the T/C was 109 % of control (dose: 50.0 mg/kg/injection, schedule: Q01DX001 (ip), vehicle: other); 103 % of control (dose: 100.0 mg/kg/injection, schedule: Q01DX001 (ip), vehicle: other); 111 % of control (dose: 200.0 mg/kg/injection, schedule: Q01DX001 (ip), vehicle: other); 105 % of control (dose: 400.0 mg/kg/injection, schedule: Q01DX001 (ip), vehicle: other).

For the compound `CN(C)c1ccnc(SCc2ccc(Cl)cc2Cl)n1`, the T/C (dose: 25.0 mg/kg/injection, schedule: Q01DX Z (ip), vehicle: methylcellulose (MC)) is 92 % of control and the T/C (dose: 50.0 mg/kg/injection, schedule: Q01DX Z (ip), vehicle: methylcellulose (MC)) is 94 % of control.

Consider `Br[SiH](Br)Br`, for which the T/C by setting is: (dose: 25.6 mg/kg/injection, schedule: Q04DX002 (ip), vehicle: saline with Tween-80) 93 % of control; (dose: 64.0 mg/kg/injection, schedule: Q04DX002 (ip), vehicle: saline with Tween-80) 93 % of control; (dose: 100.0 mg/kg/injection, schedule: Q04DX003 (ip), vehicle: saline with Tween-80) 101 % of control; (dose: 160.0 mg/kg/injection, schedule: Q04DX002 (ip), vehicle: saline with Tween-80) 90 % of control; (dose: 200.0 mg/kg/injection, schedule: Q04DX003 (ip), vehicle: saline with Tween-80) 92 % of control; (dose: 400.0 mg/kg/injection, schedule: Q04DX002 (ip), vehicle: saline with Tween-80) 97 % of control. Moreover, the T/C (dose: 400.0 mg/kg/injection, schedule: Q04DX003 (ip), vehicle: saline with Tween-80) was 92 % of control.

In the case of `CC(=O)O[C@@]1(C)C(=O)OCC2=CCN3CC[C@@H](OC(=O)[C@H](C)[C@]1(C)OC(C)=O)[C@@H]23`, the T/C under setting [10] was 117 % of control.

Regarding `OC1c2ccccc2C=Cc2ccccc21`, the T/C by setting is: under setting [2], 104 % of control; under setting [8], 101 % of control; under setting [9], 101 % of control.
